Here are results for four molecules from patent US9951089B2, “Methods of treating a fatty acid amide hydrolase-mediated condition” (INFINITY PHARMACEUTICALS, INC., priority 2010, dated 2018).

SMILES strings stand for the structures. Bounds are passed on as bounds.

A short description of series [1]: Solubility plot in 2-MeTHF:n-heptane. It is filed as physicochemical. As to conditions: 2-MeTHF:n-heptane solvent mixture, organic solvent or mixture; mixture of 2-MeTHF:n-heptane, at least a 2:1 ratio. From the text:
In order to further simplify the reaction workup transition, water-miscible THF was replaced with water immiscible 2-MeTHF as the reaction co-solvent with n-heptane, thus eliminating the need for MTBE in the workup. […] This afforded a relatively wide solubility range for both the reaction and the workup while still keeping the solvent volumes at reasonable levels for the telescoped steps.

Series [2] is described as follows: Compatibility study: stability of drug product suspended in CMC vehicle. As to conditions: suspension in carboxymethylcellulose sodium (CMC) vehicle. It is filed as physicochemical. An excerpt: (§1) In the clinic, protocol-specified portions of drug product are suspended in a vehicle consisting of commercially available medium viscosity USP carboxymethylcellulose sodium (CMC) in Sterile Water for Injection (SWFI). CMC is a chemically stable compound that is commonly used in oral pharmaceutical formulations and appears on the FDA list of substances that are Generally Recognized As Safe (GRAS).

A short description of series [3]: Solubility of drug product in water. It is filed as physicochemical. The note with it: crystalline solid.
Source text: as §1

Series [4] is described as follows: Mechanical stressing of Form A, XRPD read-out. It is filed as physicochemical. On the procedure: (§2) XRPD patterns were collected with an Inel XRG-3000 diffractometer. An incident beam of Cu Kα radiation was produced using a fine-focus tube and a parabolically graded multilayer mirror. Prior to the analysis, a silicon standard (NIST SRM 640c) was analyzed to verify the Si 111 peak position. A specimen of the sample was packed into a thin-walled glass capillary, and a beam-stop was used to minimize the background from air. Diffraction patterns were collected in transmission geometry using Windif v. 6.6 software and a curved position-sensitive Equinox detector with a 2θ range of 120°.
(§3) XRPD patterns were collected with a PANALYTICAL® X'Pert PRO MPD diffractometer using an incident beam of Cu radiation produced using an Optix long, fine-focus source. An elliptically graded multilayer mirror was used to focus Cu Kα X-rays through the specimen and onto the detector. Prior to the analysis, a silicon specimen (NIST SRM 640c) was analyzed to verify the Si 111 peak position. A specimen of the sample was sandwiched between 3 μm-thick films and analyzed in transmission geometry. A beam-stop and short antiscatter extension were used to minimize the background generated by air. Soller slits for the incident and diffracted beams were used to minimize broadening from axial divergence. Diffraction patterns were collected using a scanning position-sensitive detector (X'CELERATOR® located 240 mm from the specimen and Data Collector software v. 2.2b.
(§4) Form A crystal form of Compound 1 was subjected to (1) mechanical stressing experiments and (2) relative humidity stressing experiments, where the material was subjected to different levels of relative humidity (R.H.) and temperature.

A short description of series [5]: Relative humidity stressing of Form A, XRPD read-out. It is filed as physicochemical. As to conditions: 7 days. On the procedure: as §2, §3, §4
The nature of series [6]: Material B/Form A relative humidity stressing (conversion study). Format: physicochemical. As to conditions: approximately 75% R.H. and 41° C.

As for `OB(O)c1ccc(-c2cccc(F)c2)cc1F` [Compound 1, 3,3′-difluorobiphenyl-4-ylboronic acid], in series [1], the solubility is more than 100 mg/mL. Besides, the “stability of the drug product suspended in CMC” value in series [2] is recorded as “at least 48 hours”. In addition, the solubility in water entry in series [3] is recorded as “sparingly soluble”.

As for `Fc1cccc(-c2ccc(B3OB(c4ccc(-c5cccc(F)c5)cc4F)OB(c4ccc(-c5cccc(F)c5)cc4F)O3)c(F)c2)c1` [Compound 2, 2,4,6-tris(3,3′-difluorobiphenyl-4-yl)-1,3,5,2,4,6-trioxatriborinane], the melting point lay within 238 to 241 °C.

For `OB(O)c1ccc(-c2cccc(F)c2)cc1F` [Form A, 3,3′-difluorobiphenyl-4-ylboronic acid], the “XRPD Result after mechanical stressing” value is “Form A, low” in series [4] (compress, 10,000 lb, 5 min., no solvent); “Form A” in series [4] (mill, 30 Hz, 20 min., ACN); “Form A” in series [4] (mill, 30 Hz, 20 min., MEK); “Form A” in series [4] (mill, 30 Hz, 20 min., THF); “Form A, low” in series [4] (mill, 30 Hz, 20 min., no solvent). Besides, the “stability to humidity stressing” value in series [5] (75% R.H., about 40° C.) is reported as “stable”; in series [5] (75% R.H., room temperature), “stable”; in series [5] (97% R.H., room temperature) it was “stable”. In addition, the “XRPD Result after relative humidity stressing” value is reported as “Form A” in series [5] (75% RH, 40° C.); “Form A” in series [5] (75% RH, RT); “Form A” in series [5] (97% RH, RT).

Regarding `OB(O)c1ccc(-c2cccc(F)c2)cc1F` [Material B, 3,3′-difluorobiphenyl-4-ylboronic acid], the “crystal form conversion under humidity stressing” value in series [6] (after 4, 7, and 14 days) is “The same mixture”; in series [6] (as early as 1 day), “convert to a mixture of Material B and Form A”.
